# From US20250206732A1, “COMPOUNDS AND METHODS FOR THE TARGETED DEGRADATION OF KRAS” (Arvinas Operations, Inc., priority 2022, published 2025)
# Molecular target: T1, AsPC-1 HiBiT-KRASG12D (Homo sapiens, UniProt P01116, G12D)
# T1 construct: insert the HiBiT tag onto the N-terminus of one or more of the endogenous KRAS alleles; endogenous in cells; host or cells: AsPC-1 (ATCC CRL-1682), CRISPR-Cas9 knock-in clone, one tagged allele
# Assay: HiBiT degradation assay (G12D), AsPC-1 HiBiT-KRASG12D cells
# Assay type: cell-based
# Settings: 24 hours treatment; for Dmax: ASPC1, AsPC-1 HiBiT-KRASG12D cells; for DC50: HiBiT luminescence
# How it was run: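 Luminescence read-out of HiBiT-tagged endogenous KRASG12D in AsPC-1 cells after 24 h compound exposure at 37° C; lytic Nano-Glo HiBiT detection, 45 min at room temperature. A parallel alamar blue read (4 h) checked viability, normalized to DMSO-only controls.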
# T1 sequence (P01116 1-188 isoform P01116-2 G12D): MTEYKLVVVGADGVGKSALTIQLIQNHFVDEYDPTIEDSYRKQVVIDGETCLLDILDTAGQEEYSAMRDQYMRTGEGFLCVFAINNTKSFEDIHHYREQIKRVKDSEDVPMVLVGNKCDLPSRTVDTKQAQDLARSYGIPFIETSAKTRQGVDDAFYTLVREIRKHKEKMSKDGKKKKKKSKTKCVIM
SMILES,Dmax (maximum degradation observed) [%],DC50 (AsPC-1 HiBiT-KRASG12D cells) [nM],"AsPC-1 HiBiT-KRASG12D DMax (AsPC-1 HiBiT-KRASG12D cells, maximum degradation observed)"
"CCc1cccc2cc(O)cc(-c3ncc4c(N5CC6CCC(C5)N6)nc(OCCN5CCC6(CC5)CN(c5cc([C@H](C(=O)N7C[C@H](O)C[C@H]7C(=O)N[C@@H](C)c7ccc(-c8ccnn8C)cc7)C(C)C)on5)C6)nc4c3F)c12 (relative stereo) [Compound 140, (2S,4R)-1-[(2R*)-2-[3-(7-{2-[(4-{3,8-diazabicyclo[3.2.1]octan-3-yl}-7-(8-ethyl-3-hydroxynaphthalen-1-yl)-8-fluoropyrido[4,3-d]pyrimidin-2-yl)oxy]ethyl}-2,7-diazaspiro[3.5]nonan-2-yl)-1,2-oxazol-5-yl]-3-methylbutanoyl]-4-hydroxy-N-[(1S)-1-[4-(1-methyl-1H-pyrazol-5-yl)phenyl]ethyl]pyrrolidine-2-carboxamide]",80 to 100,< 600,–
CCc1cccc2cccc(-c3ncc4c(N5CC6CCC(C5)N6)nc(OC[C@]56CCCN5[C@H](COC(=O)N5CC(Oc7cc([C@H](C(=O)N8C[C@H](O)C[C@H]8C(=O)N[C@@H](C)c8ccc(-c9scnc9C)cc8)C(C)C)on7)C5)CC6)nc4c3F)c12 [Compound 225],80 to 100,< 600,–
"CCc1cccc2cc(O)cc(-c3ncc4c(N5CC6CCC(C5)N6)nc(OC[C@@]56CCCN5[C@@H](COC(=O)N5CCN(c7cc(C(C(=O)N8C[C@H](O)C[C@H]8C(=O)N[C@@H](C)c8ccc(-c9scnc9C)cc8)C(C)C)on7)CC5)CC6)nc4c3F)c12 (single isomer, unassigned) [Compound 108, [(3R,7aS)-7a-{[(4-{3,8-diazabicyclo[3.2.1]octan-3-yl}-7-(8-ethyl-3-hydroxynaphthalen-1-yl)-8-fluoropyrido[4,3-d]pyrimidin-2-yl)oxy]methyl}-hexahydro-1H-pyrrolizin-3-yl]methyl 4-{5-[(2R*)-1-[(2S,4R)-4-hydroxy-2-{[(1S)-1-[4-(4-methyl-1,3-thiazol-5-yl)phenyl]ethyl]carbamoyl}pyrrolidin-1-yl]-3-methyl-1-oxobutan-2-yl]-1,2-oxazol-3-yl}piperazine-1-carboxylate]",80 to 100,< 600,–
CCc1cccc2cc(O)cc(-c3ncc4c(N5CC6CCC(C5)N6)nc(OCCN5CCC[C@@H](CN6CCN(c7cc([C@H](C(=O)N8C[C@H](O)C[C@H]8C(=O)N[C@@H](C)c8ccc(-c9scnc9C)cc8)C(C)C)on7)CC6)C5)nc4c3F)c12 [Compound 228],80 to 100,< 600,–
"CCc1cccc2cc(O)cc(-c3ncc4c(N5CC6CCC(C5)N6)nc(OC[C@@]56CCCN5[C@H](COC(=O)N5CC(Oc7cc([C@H](C(=O)N8C[C@H](O)C[C@H]8C(=O)N[C@@H](C)c8ccc(-c9scnc9C)cc8)C(C)C)on7)C5)CC6)nc4c3F)c12 [Compound 126, [(3S,7aS)-7a-{[(4-{3,8-diazabicyclo[3.2.1]octan-3-yl}-7-(8-ethyl-3-hydroxynaphthalen-1-yl)-8-fluoropyrido[4,3-d]pyrimidin-2-yl)oxy]methyl}-hexahydro-1H-pyrrolizin-3-yl]methyl 3-({5-[(2R)-1-[(2S,4R)-4-hydroxy-2-{[(1S)-1-[4-(4-methyl-1,3-thiazol-5-yl)phenyl]ethyl]carbamoyl}pyrrolidin-1-yl]-3-methyl-1-oxobutan-2-yl]-1,2-oxazol-3-yl}oxy)azetidine-1-carboxylate]",80 to 100,< 600,–
"CCc1cccc2cccc(-c3ncc4c(N5CC6CCC(C5)N6C(=O)OC(C)(C)C)nc(OC[C@]56CCCN5[C@H](COC(=O)N5CCN(c7cc([C@H](C(=O)N8C[C@H](O)C[C@H]8C(=O)N[C@@H](C)c8ccc(-c9scnc9C)cc8)C(C)C)on7)[C@H](C)C5)CC6)nc4c3F)c12 [Compound 226, tert-butyl 3-[7-(8-ethyl-1-naphthyl)-8-fluoro-2-[[(3S,8R)-3-[[(3R)-4-[5-[(1R)-1-[(2S,4R)-4-hydroxy-2-[[(1S)-1-[4-(4-methylthiazol-5-yl)phenyl]ethyl]carbamoyl]pyrrolidine-1-carbonyl]-2-methyl-propyl]isoxazol-3-yl]-3-methyl-piperazine-1-carbonyl]oxymethyl]-1,2,3,5,6,7-hexahydropyrrolizin-8-yl]methoxy]pyrido[4,3-d]pyrimidin-4-yl]-3,8-diazabicyclo[3.2.1]octane-8-carboxylate]",–,< 600,A (80% < A ≤ 100%)
"CCc1cccc2cc(O)cc(-c3ncc4c(N5CC6CCC(C5)N6)nc(OCCN5CCN(c6cc([C@@H](C(=O)N7C[C@H](O)C[C@H]7C(=O)N[C@@H](C)c7ccc(-c8scnc8C)cc7)C(C)C)on6)CC5)nc4c3F)c12 (relative stereo) [Compound 136, (2S,4R)-1-[(2R*)-2-[3-(4-{2-[(4-{3,8-diazabicyclo[3.2.1]octan-3-yl}-7-(8-ethyl-3-hydroxynaphthalen-1-yl)-8-fluoropyrido[4,3-d]pyrimidin-2-yl)oxy]ethyl}piperazin-1-yl)-1,2-oxazol-5-yl]-3-methylbutanoyl]-4-hydroxy-N-[(1S)-1-[4-(4-methyl-1,3-thiazol-5-yl)phenyl]ethyl]pyrrolidine-2-carboxamide]",–,> 3000,–
Cc1ncsc1-c1ccc([C@H](C)NC(=O)[C@@H]2C[C@@H](O)CN2C(=O)[C@@H](c2cc(OC3CN(C(=O)OC[C@@H]4CC[C@@]5(COc6nc(N7CC8CCC(C7)N8)c7cnc(-c8cc(O)cc(Cl)c8C8CC8)c(F)c7n6)CCCN45)C3)no2)C(C)C)cc1 [Compound 306],80 to 100,< 600,–
"C#Cc1c(F)ccc2cc(O)cc(-c3ncc4c(N5CC6CCC(C5)N6)nc(OCCN5CCC(CCOc6cc([C@H](C(=O)N7C[C@H](O)C[C@H]7C(=O)N[C@@H](C)c7ccc(-c8scnc8C)cc7)C(C)C)on6)CC5)nc4c3F)c12 [Compound 173, (2S,4R)-1-[(2R)-2-{3-[2-(1-{2-[(4-{3,8-diazabicyclo[3.2.1]octan-3-yl}-7-(8-ethynyl-7-fluoro-3-hydroxynaphthalen-1-yl)-8-fluoropyrido[4,3-d]pyrimidin-2-yl)oxy]ethyl}piperidin-4-yl)ethoxy]-1,2-oxazol-5-yl}-3-methylbutanoyl]-4-hydroxy-N-[(1S)-1-[4-(4-methyl-1,3-thiazol-5-yl)phenyl]ethyl]pyrrolidine-2-carboxamide]",80 to 100,< 600,–
"CCc1cccc2cc(O)cc(-c3ncc4c(N5CC6CCC(C5)N6)nc(OCCN5CCC(CC6CCN(CC(=O)N[C@H](C(=O)N7C[C@H](O)C[C@H]7C(=O)N[C@@H](C)c7ccc(-c8scnc8C)cc7)C(C)(C)C)CC6)CC5)nc4c3F)c12 [Compound 274, (2S,4R)-1-[(2S)-2-(2-{4-[(1-{2-[(4-{3,8-diazabicyclo[3.2.1]octan-3-yl}-7-(8-ethyl-3-hydroxynaphthalen-1-yl)-8-fluoropyrido[4,3-d]pyrimidin-2-yl)oxy]ethyl}piperidin-4-yl)methyl]piperidin-1-yl}acetamido)-3,3-dimethylbutanoyl]-4-hydroxy-N-[(1S)-1-[4-(4-methyl-1,3-thiazol-5-yl)phenyl]ethyl]pyrrolidine-2-carboxamide]",60 to 80,< 600,–
